The test system of this assay is P388 leukemia ip, CD2F1 mice, survival T/C. As to the kind of experiment: NCI In Vivo Anticancer Drug Screen. Data for tumor model P388 Leukemia (intraperitoneal) in CD2F1 (CDF1) mice. The settings on record: endpoint: median survival time, higher = longer survival. The essentials:
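Mice carrying the transplanted tumor received test compound or vehicle. Survival was recorded in each group, and the value is the treated-group measurement divided by that of the vehicle-treated control group.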

The mark [1] stands for this setting: dose: 50.0 mg/kg/injection, schedule: Q01DX009 (ip), vehicle: saline.
Setting [2] is: dose: 100.0 mg/kg/injection, schedule: Q01DX009 (ip), vehicle: saline.
[3] abbreviates: dose: 50.0 mg/kg/injection, schedule: Q01DX009 (ip), vehicle: saline with Tween-80.
Where [4] appears, read: dose: 100.0 mg/kg/injection, schedule: Q01DX009 (ip), vehicle: saline with Tween-80.
The mark [5] stands for this setting: dose: 100.0 mg/kg/injection, schedule: Q04DX002 (ip), vehicle: saline with Tween-80.
[6] abbreviates: dose: 12.5 mg/kg/injection, schedule: Q01DX009 (ip), vehicle: saline with Tween-80.
Setting [7] is: dose: 50.0 mg/kg/injection, schedule: Q01DX009 (ip), vehicle: Klucel (hydroxypropylcellulose) (HPC).
The mark [8] stands for this setting: dose: 100.0 mg/kg/injection, schedule: Q01DX009 (ip), vehicle: Klucel (hydroxypropylcellulose) (HPC).
Where [9] appears, read: dose: 50.0 mg/kg/injection, schedule: Q01DX005 (ip), vehicle: saline with Tween-80.
Where [10] appears, read: dose: 100.0 mg/kg/injection, schedule: Q01DX005 (ip), vehicle: saline with Tween-80.

“And” between values parts separate entries of the source, which are not always exact repeats. Equal values may be shown once. Inconclusive results and toxic doses are left out.

On to `C=CCOCN1c2cc(OC)c([C@@]3(C(=O)OC)C[C@@H]4CN(CCc5c3[nH]c3ccccc53)C[C@](O)(CC)C4)cc2[C@@]23CCN4CC=C[C@@](CC)([C@@H](OC(C)=O)[C@](O)(C(=O)OC)[C@H]12)[C@H]43`, for which the T/C is 109 % of control (dose: 1.0 mg/kg/injection, schedule: Q01DX001 (ip), vehicle: water); 111 % of control (dose: 2.0 mg/kg/injection, schedule: Q01DX001 (ip), vehicle: water); 115 % of control (dose: 4.0 mg/kg/injection, schedule: Q01DX001 (ip), vehicle: water); 158 % of control (dose: 32.0 mg/kg/injection, schedule: Q01DX001 (ip), vehicle: other).
As for `CN1CCOc2cc3nc4ccccc4nc3cc21`, the T/C by setting is: (dose: 25.0 mg/kg/injection, schedule: Q01DX009 (ip), vehicle: saline) 107 % of control; under setting [1], 98 % of control; under setting [2], 105 % of control.
As for `CC(C)=NOc1ccc([N+](=O)[O-])cc1[N+](=O)[O-]`, the T/C is 96 % of control under setting [3] and 108 % of control under setting [4].
In the case of `O=[N+]([O-])c1ccc(N(CCO)CCO)c2c1no[n+]2[O-]`, the T/C is, setting by setting: (dose: 3.12 mg/kg/injection, schedule: Q01DX005 (ip), vehicle: saline with Tween-80) 117 % of control; (dose: 6.25 mg/kg/injection, schedule: Q01DX005 (ip), vehicle: saline with Tween-80) 122 % of control; (dose: 8.0 mg/kg/injection, schedule: Q04DX003 (ip), vehicle: saline) 111 % of control; (dose: 16.0 mg/kg/injection, schedule: Q04DX003 (ip), vehicle: saline) 121 % of control.
As for `CN=C(N)N/N=C(/C)c1ccc2c(c1)Cc1cc(I)ccc1-2`, the T/C by setting is: (dose: 25.0 mg/kg/injection, schedule: Q04DX002 (ip), vehicle: saline with Tween-80) 106 % of control; (dose: 50.0 mg/kg/injection, schedule: Q04DX002 (ip), vehicle: saline with Tween-80) 100 % of control; under setting [5], 107 % of control.
Consider `N=C(N)N1CCNc2ccc(Cl)cc2C1`, for which the T/C is, setting by setting: under setting [5], 96 % of control; (dose: 200.0 mg/kg/injection, schedule: Q04DX002 (ip), vehicle: saline with Tween-80) 91 % of control.
Regarding `COc1ccc(CC2(C(=O)O)NCCS2)cc1OC` (stereo unspecified), the T/C reads like this: (dose: 100.0 mg/kg/injection, schedule: Q04DX003 (ip), vehicle: Klucel (hydroxypropylcellulose) (HPC)) 101 % of control; (dose: 200.0 mg/kg/injection, schedule: Q04DX003 (ip), vehicle: Klucel (hydroxypropylcellulose) (HPC)) 98 % of control.
For the compound `Cc1ccc(S(=O)(=O)/N=[Se](\C)c2ccccc2)cc1` (stereo unspecified), the T/C by setting is: (dose: 0.79 mg/kg/injection, schedule: Q01DX009 (ip), vehicle: saline) 95 % of control; (dose: 1.56 mg/kg/injection, schedule: Q01DX009 (ip), vehicle: saline) 97 % of control; (dose: 3.12 mg/kg/injection, schedule: Q01DX009 (ip), vehicle: saline) 93 % of control and 97 % of control; under setting [6], 96 % of control; (dose: 25.0 mg/kg/injection, schedule: Q01DX009 (ip), vehicle: saline with Tween-80) 96 % of control; under setting [3], 108 % of control. Moreover, the T/C under setting [1] was 114 % of control.
`CC12CCC(OC3CCCCO3)CC1=CCC1C2CCC2(C)C(O)/C(=N\O)CC12` (stereo unspecified): the T/C runs as follows: (dose: 100.0 mg/kg/injection, schedule: Q04DX002 (ip), vehicle: saline) 91 % of control; (dose: 200.0 mg/kg/injection, schedule: Q04DX002 (ip), vehicle: saline) 94 % of control; (dose: 400.0 mg/kg/injection, schedule: Q04DX002 (ip), vehicle: saline) 90 % of control.
`CCCCCCCCCCCCS(=O)(=O)O`: the T/C (dose: 3.12 mg/kg/injection, schedule: Q01DX009 (ip), vehicle: saline with Tween-80) was 119 % of control; the T/C (dose: 6.25 mg/kg/injection, schedule: Q01DX009 (ip), vehicle: saline with Tween-80) was 111 % of control and 119 % of control; the T/C under setting [6] is 110 % of control and 112 % of control.
In the case of `[I][Hg][CH2]C1OCCOC1[CH2][Hg][I]` (stereo unspecified), the T/C (dose: 100.0 mg/kg/injection, schedule: Q04DX003 (ip), vehicle: saline with Tween-80) is 118 % of control; the T/C (dose: 200.0 mg/kg/injection, schedule: Q04DX003 (ip), vehicle: saline with Tween-80) is 118 % of control; the T/C (dose: 400.0 mg/kg/injection, schedule: Q04DX003 (ip), vehicle: saline with Tween-80) was 90 % of control.
Turning to `O=C1CCC(Cc2ccc(I)cc2)C(=O)N1` (stereo unspecified), the T/C runs as follows: (dose: 100.0 mg/kg/injection, schedule: Q01DX001 (ip), vehicle: saline with Tween-80) 101 % of control; (dose: 200.0 mg/kg/injection, schedule: Q01DX001 (ip), vehicle: saline with Tween-80) 100 % of control; (dose: 400.0 mg/kg/injection, schedule: Q01DX001 (ip), vehicle: saline with Tween-80) 95 % of control.
Consider `CN(C)C1C(O)C2Oc3c(cc(O)c4c3C(=O)c3cc5c(c(O)c3C4=O)C(NC3CCCCC3)CC(C)(O)C5)C(C)(O2)C1O` (stereo unspecified), for which the T/C (dose: 2.5 mg/kg/injection, schedule: Q01DX009 (ip), vehicle: other) is 102 % of control; the T/C (dose: 5.0 mg/kg/injection, schedule: Q01DX009 (ip), vehicle: other) was 105 % of control; the T/C (dose: 10.0 mg/kg/injection, schedule: Q01DX009 (ip), vehicle: other) was 112 % of control; the T/C (dose: 40.0 mg/kg/injection, schedule: Q01DX009 (ip), vehicle: other) is 121 % of control.
With `COC1/C=C/OC2(C)Oc3c(C)c(O)c4c(c3C2=O)C(N)=C(NC2CC2)C(=NC(=O)/C(C)=C\C=C\C(C)C(O)C(C)C(O)C(C)C(OC(C)=O)C1C)C4=O` (stereo unspecified), the T/C is, setting by setting: (dose: 25.0 mg/kg/injection, schedule: Q01DX009 (ip), vehicle: Klucel (hydroxypropylcellulose) (HPC)) 102 % of control; under setting [7], 103 % of control; under setting [8], 119 % of control.
Turning to `NNC(=O)c1ccccc1NC(=O)CSc1nc2ccccc2s1`, the T/C is 104 % of control under setting [7]; 101 % of control under setting [8]; 101 % of control (dose: 200.0 mg/kg/injection, schedule: Q01DX009 (ip), vehicle: Klucel (hydroxypropylcellulose) (HPC)).
As for `Nc1c(Cl)sc2ccccc2c1=O`, the T/C is, setting by setting: under setting [9], 91 % of control; under setting [10], 91 % of control; (dose: 200.0 mg/kg/injection, schedule: Q01DX005 (ip), vehicle: saline with Tween-80) 104 % of control.
As for `CCOC(=O)C(CCC(OCC)OCC)C(=O)OCC`, the T/C is 103 % of control under setting [1]; 102 % of control under setting [2]; 101 % of control (dose: 200.0 mg/kg/injection, schedule: Q01DX009 (ip), vehicle: saline).
Consider `COc1cccc2c1C(=O)c1c(O)c3c(c(O)c1C2=O)CC(O)(C(C)=O)CC3OC1CC(NC(=O)C(CCCCN)NC(=O)C(N)CCN)C(O)C(C)O1` (stereo unspecified), for which the T/C is, setting by setting: (dose: 2.5 mg/kg/injection, schedule: Q04DX003 (ip), vehicle: water) 94 % of control; (dose: 5.0 mg/kg/injection, schedule: Q04DX003 (ip), vehicle: water) 94 % of control; (dose: 10.0 mg/kg/injection, schedule: Q04DX003 (ip), vehicle: water) 98 % of control; (dose: 20.0 mg/kg/injection, schedule: Q04DX003 (ip), vehicle: water) 101 % of control; (dose: 40.0 mg/kg/injection, schedule: Q04DX003 (ip), vehicle: water) 105 % of control; (dose: 80.0 mg/kg/injection, schedule: Q04DX003 (ip), vehicle: distilled water + Tween-80) 96 % of control. Also, the T/C (dose: 160.0 mg/kg/injection, schedule: Q04DX003 (ip), vehicle: distilled water + Tween-80) was 105 % of control and the T/C (dose: 320.0 mg/kg/injection, schedule: Q04DX003 (ip), vehicle: distilled water + Tween-80) is 105 % of control.
For `O=C(Nc1ccc(Cl)c(Cl)c1)n1cnc2ccccc21`, the T/C reads like this: (dose: 6.25 mg/kg/injection, schedule: Q01DX009 (ip), vehicle: saline) 105 % of control and 109 % of control; under setting [3], 98 % of control.
With `ICCCCCCCCCC[n+]1ccc2ccccc2c1`, the T/C under setting [9] is 107 % of control.
For the compound `Cc1nc(-c2ccccc2)nc2c1nc(C(C)C)n2Nc1ccccc1`, the T/C runs as follows: under setting [9], 96 % of control; under setting [10], 98 % of control.
On to `Cc1c([N+](=O)[O-])ccn1C`, for which the T/C is 98 % of control under setting [3]; 105 % of control under setting [4]; 97 % of control (dose: 200.0 mg/kg/injection, schedule: Q01DX009 (ip), vehicle: saline with Tween-80).

The record behind these values is PubChem BioAssay AID330 (DTP/NCI, 2004).
